Measurements: patent US8686028B2, “Substituted benzfurochromenes and related compounds for the prevention and treatment of bone related disorders” (Council of Scientific & Industrial Research, priority 2008, dated 2014)

What was measured:
[1] = tested on: Calvarial osteoblasts; test: Alkaline phosphatase (ALP) activity for osteoblast differentiation, calvarial osteoblasts; assay type: cell-based, rat; settings: calvarial osteoblasts, 48 h, 10^−12M to 10^−6M
Procedure: (§1) Neonatal rat calvarial cell cultures are prepared as described previously (Endocrinology 145:3451) using slight modification. Briefly, for primary osteoblast cell cultures, frontal and parietal bones from Sprague-Dawley rat neonates (1-3 day old) are digested in 0.1% collagenase/0.1% dispase in α-MEM to obtain 5 sequential digests. The second through fifth digests are combined and grown to confluence at 37° C. and 5% CO2 in air in α-MEM, supplemented with 10% fetal bovine serum (FBS), 2 mM glutamine, 100 U/ml penicillin-streptomycin, Non-essential amino acid solution and sodium pyruvate.
70 to 80% confluent Calvarial osteoblasts were treated with μM S006-1709 for 48 h in the presence of ascorbate and glycerophosphate. At the end of incubation period, total ALP activity was measured with a method using p-nitrophenylphosphate (PNPP) as substrate. The reaction mixture contained diethanolamine buffer (1 mol/L, pH 9.8), 0.5 mmol/L MgCl2.6H2O, and 10 mmol/L PNPP. ALP activity was measured by taking OD of the amount of colored product formed by the dephosphorylation of PNPP at 405 nm. […] In addition, the effect of S006-1709 on mineralization of calvarial osteoblasts was studied.
We then studied its effect in osteoblast differentiation in both calvarial and bone marrow osteoblasts. Confluent calvarial osteoblasts (70 to 80%) were treated with S006-1710 for 48 h in the presence of ascorbate and glycerophosphate at concentrations ranging from 10^−16M to 10^−6M. At the end of incubation period, total ALP activity was measured with the same method used previously using p-nitrophenylphosphate (PNPP) as substrate.
70 to 80% confluent Calvarial osteoblasts were treated with S007-1351 for 48 h in the presence of ascorbate and glycerophosphate. At the end of incubation period, total ALP activity was measured with a method using p-nitrophenylphosphate (PNPP) as substrate. The reaction mixture contained diethanolamine buffer (1 mol/L, pH 9.8), 0.5 mmol/L MgCl2.6H2O, and 10 mmol/L PNPP. ALP activity was measured by taking OD of the amount of colored product formed by the dephosphorylation of PNPP at 405 nm.
70 to 80% confluent calvarial osteoblasts were treated with S007-1352 for 48 h in the presence of ascorbate and glycerophosphate at concentrations ranging from 10^−12M to 10^−6 M. At the end of incubation period, total ALP activity was measured with the same method used previously using p-nitrophenylphosphate (PNPP) as substrate.

[2] = tested on: 3T3-L1 cells; test: Anti-adipogenic effect (Oil Red O) in 3T3-L1 cells; assay type: cell-based, mouse
Procedure: The best characterized model of adipogenesis in vitro is the 3T3-L1 cell line, a substrain of Swiss 3T3 mouse cell line. 3T3-L1 cells propagated under normal conditions have a fibroblastic phenotype. However, when treated with a combination of dexamethasone, isobutylmethylxanthine (IBMX or MIX) and insulin, 3T3-L1 cells adopt a rounded phenotype and within 5 days begin to accumulate lipids intracellularly in the form of lipid droplets.
3T3-L1 cells were plated in 48-well plates 40,000 cells/well. The cells were incubated in DMEM containing fetal calf serum for 2 days until the cells become confluent. The cells were then incubated with Adipogenesis initiation media which contains DMEM with 10% FCS, IBMX and dexamethasone for 48 hrs at 37° C., 5% CO2. After two days the media was replaced with Adipogenesis Progression media which contains DMEM/10% FCS and insulin for 48 hrs at 37° C., 5% CO2, Media was again changed gently to Adipogenesis maintenance media for 48 hrs at 37° C., 5% CO2. At the end of eight days of experiment the cells were fixed and then stained with Oil Red O which stains lipid droplets. The dye was extracted and extracted dye was transferred to a 96-well plate and absorbance of extracted Oil Red O was measured in a plate reader at 490 nm.
Compounds S006-1709, S007-1351-53, S007-1495 and S007-1500 were tested in vitro in 3T3L1 cell line at two concentrations 10^−10 M and 10^−12M. FIG. 8A depicts the adipocytes formed at the end of the 8 day experiment. The fixed cells were stained with Oil Red O. The dye was then extracted and quantified.

[3] = tested on: ovariectomized immature female rats; test: Estrogenicity, uterine fresh weight in ovariectomized immature female rats; assay type: in vivo, rat; settings: 10 mg/Kg oral
Procedure: (§2) 21 day old immature female rats (25-30 grams) were ovariectomized and given 7 days post-operative rest. Thereafter they were treated orally with the test agent (10 mg/Kg body weight) or with vehicle or Ethynyl estradiol, the reference standard for three consecutive days. For anti-estrogenicity, other than the test chemical, ethynyl estradiol (0.01 mg/kg) was given at 15 minutes interval before the test chemical. Autopsy was done 24 h after last treatment and uterine fresh weight was taken.

[4] = tested on: Immature 21 d old female SD rat; test: In vivo efficacy, BMD in immature female SD rats
Procedure: Immature 21 d old female SD rat model was chosen, animals were randomized into four groups and treated with a daily dose of test agent or vehicle for one month and autopsied on day 31.
[…], the animals were shifted to metabolic cage for acclaimatization for 24 h with food and water. Post acclaimatization animals were further left in metabolic cage for 24 h with water but no food. Blood and urine samples were collected after 24 h. Various biochemical parameters like serum calcium, serum phosphorus, serum osteocalcin, serum alkaline phosphatase (ALP) were evaluated. The animals were autopsied on day 31 and lumbar vertebrae, femur and tibia bones were isolated, cleaned and fixed in 70% ethanol in saline and stored at 4° C. until BMD measurement. Initial and final body weight and uterine weight at autopsy were recorded. BMD measurements of region of interest (lumbar: global, L1-L4; femur: global, neck and mid-shaft; tibia: global, proximal and tibio-fibula junction point) was performed using a bone densitometer (Model 4500 Elite, Hologic) fitted with commercially available software (QDR 4500 ACCLAIM series) for a fan-beam DXA system that permits determination of bone densitometry and measurement of body composition in small animals in vivo.

[5] = tested on: Calvarial osteoblast cells; test: MTT cell proliferation assay; assay type: cell-based, rat; settings: 10^−10 M to 10^−6M, 24 hrs
Procedure: as §1
MTT [3-(4,5-dimethylthiazol-2-yl)-2,5-diphenyltetrazolium bromide] assay, first described by Mosmann in 1983, is based on the ability of a mitochondrial dehydrogenase enzyme from viable cells to cleave the tetrazolium rings of the pale yellow MTT and form a dark blue formazan crystals which is largely impermeable to cell membranes, thus resulting in its accumulation within healthy cells. Solubilisation of the cells by the addition of a detergent results in the liberation of the crystals which are solubilized. The number of surviving cells is directly proportional to the level of the formazan product created. The color can then be quantified using a simple colorimetric assay. The results can be read on a multiwell scanning spectrophotometer (Mosmann T. Rapid colorimetric assay for cellular growth and survival: application to proliferation and cytotoxicity assays. J Immunol Methods. 1983 Dec. 16; 65(1-2):55-63).
Calvarial osteoblast cells plated at a density of 2.0×10^3 cells/200 ul in 96 wells plates. Cells were grown to 60% confluency and then treated with following compounds S006-1709, S006-1710, 5006-1711, S006-1713 and; S006-1714 at concentrations ranging from 10^−10 M to 10^−6M for 24 hrs. After treatment media was removed and 10 mM MTT was added solution in phenol red free DMEM media. After an incubation of 4 hrs the MTT solution was removed. Blue colored crystals were formed which were dissolved in DMSO and absorbance was read on ELISA plate reader at 570 nm wavelength.

[6] = tested on: ovariectomized immature female rats; test: Anti-estrogenicity, uterine fresh weight with ethynyl estradiol co-treatment; assay type: in vivo, rat; settings: 10 mg/Kg oral plus ethynyl estradiol 0.01 mg/kg
Procedure: as §2

[7] = Pharmacokinetic studies in Sprague Dawley rats; assay type: in vivo; settings: rat, plasma, SD rats, oral dose of 5 mg/kg
Procedure: In-vivo pharmacokinetic parameters were generated in Sprague Dawley rats at a dose of 5 mg/kg by oral route of administration. The blood samples were drawn at 0.25, 0.5, 0.75, 1.0, 1.5, 2.0, 2.5, 4.0, 6, 8, 10, 12, 18, 24, 28, 36 and 48 hours, processed and analyzed by Liquid Chromatography-Mass Spectrometry (LC-MS). Plasma concentration at different time points were plotted to give Plasma Concentration Time Profile and the data was fitted non-compartmentally using Win NonLin 5.1 version software and the estimates of pharmacokinetic parameters were derived with SD mean values.

[8] = 3T3L1, both concentrations (10^−10 M and 10^−12M)
[9] = 10 mg/kg daily, one month, vehicle = 100

SMILES: C=CCOc1ccc2c(c1C)OCC1c3ccccc3OC21 (stereo not drawn) [Compound S007-1500, 3-Allyloxy-4-methyl-6a,11a-dihydro-6H-benzo[4,5]furo[3,2-c]chromene]
- osteoblast ALP activity vs vehicle control [1]: stimulated ALP activity
- osteoblast ALP activity vs vehicle control ([1]; listed as S-007-1500): showed stimulation in ALP activity
- effect on adipogenesis ([2]; 3T3L1, at different concentrations (10^−10 M and 10^−12M tested)): significantly inhibited adipogenesis
- estrogenicity (in words) [3]: devoid of any estrogenicity
- BMD % increase versus vehicle control, FEMUR Global ([4]; 1 mg/kg daily, one month): +27%
- BMD % increase versus vehicle control, FEMUR Mid-shaft ([4]; 1 mg/kg daily, one month): +35%
- BMD % increase versus vehicle control, FEMUR Neck ([4]; 1 mg/kg daily, one month): +16%
- BMD % increase versus vehicle control, LUMBER VERTEBRAE Global ([4]; 1 mg/kg daily, one month): +13%
- BMD % increase versus vehicle control, LUMBER VERTEBRAE L-1 ([4]; 1 mg/kg daily, one month): +6%
- BMD % increase versus vehicle control, LUMBER VERTEBRAE L-2 ([4]; 1 mg/kg daily, one month): +21%
- BMD % increase versus vehicle control, LUMBER VERTEBRAE L-3 ([4]; 1 mg/kg daily, one month): +5.5%
- BMD % increase versus vehicle control, LUMBER VERTEBRAE L-4 ([4]; 1 mg/kg daily, one month): −8.5%
- BMD % increase versus vehicle control, TIBIA Global ([4]; 1 mg/kg daily, one month): +35%
- BMD % increase versus vehicle control, TIBIA Proximal ([4]; 1 mg/kg daily, one month): +16.5%
- BMD % increase versus vehicle control, TIBIA TFSP ([4]; 1 mg/kg daily, one month): +70%
- BMD % increase versus vehicle control, FEMUR Global ([4]; 5 mg/kg daily, one month): +25%
- BMD % increase versus vehicle control, FEMUR Mid-shaft ([4]; 5 mg/kg daily, one month): +30%
- BMD % increase versus vehicle control, FEMUR Neck ([4]; 5 mg/kg daily, one month): +26%
- BMD % increase versus vehicle control, LUMBER VERTEBRAE Global ([4]; 5 mg/kg daily, one month): +17%
- BMD % increase versus vehicle control, LUMBER VERTEBRAE L-1 ([4]; 5 mg/kg daily, one month): +7%
- BMD % increase versus vehicle control, LUMBER VERTEBRAE L-2 ([4]; 5 mg/kg daily, one month): +14.5%
- BMD % increase versus vehicle control, LUMBER VERTEBRAE L-3 ([4]; 5 mg/kg daily, one month): +25%
- BMD % increase versus vehicle control, LUMBER VERTEBRAE L-4 ([4]; 5 mg/kg daily, one month): +14%
- BMD % increase versus vehicle control, TIBIA Global ([4]; 5 mg/kg daily, one month): +37%
- BMD % increase versus vehicle control, TIBIA Proximal ([4]; 5 mg/kg daily, one month): +33%
- BMD % increase versus vehicle control, TIBIA TFSP ([4]; 5 mg/kg daily, one month): +69%
- BMD in Femur and Tibia (in words) ([4]; both doses of 1.0 and 5.0 mg/kg): significant increase

SMILES: O=c1c(-c2ccccc2O)coc2c(O)c(O)ccc12 [Compound S007-1351, 7,8-Dihydroxy-3-(2-hydroxy-phenyl)-chromen-4-one]
- osteoblast ALP activity vs vehicle control [1]: significant increase
- effect on adipogenesis [2, 8]: inducers of adipogenesis
- melting point: 240 to 242 °C

SMILES: COc1ccccc1-c1coc2c(O)c(O)ccc2c1=O [Compound S007-1352, 7,8-Dihydroxy-3-(2-methoxy-phenyl)-chromen-4-one]
- osteoblast ALP activity vs vehicle control [1]: significant increase
- effect on adipogenesis [2, 8]: inducers of adipogenesis
- melting point: 220 to 222 °C

SMILES: Oc1ccc2c(c1)OCC1c3ccccc3OC21 (stereo not drawn) [Compound S006-1709, 6a,11a-Dihydro-6H-benzo[4,5]furo[3,2-c]chromen-3-ol]
- effect on osteoblast proliferation (MTT) [5]: no effect
- Estrogenic Activity (uterine fresh weight) ([3]; three consecutive days, vehicle 16.46): 15.8
- Anti-Estrogenic Activity (uterine fresh weight) [6]: 96.86
- Anti-Estrogenic Activity, % (second line of cell) ([6]; relative to ethynyl estradiol): −1.5%^
- Change in BMD, Femur Global [4, 9]: 138.75
- Change in BMD, Femur Neck [4, 9]: 141
- Change in BMD, Femur Shaft [4, 9]: 167
- Change in BMD, Lumber Vertebra Global [4, 9]: 120
- Change in BMD, Lumber Vertebra LV1 [4, 9]: 126
- Change in BMD, Lumber Vertebra LV2 [4, 9]: 124
- Change in BMD, Lumber Vertebra LV3 [4, 9]: 90.3
- Change in BMD, Lumber Vertebra LV4 [4, 9]: 125
- Change in BMD, Tibia Global [4, 9]: 133
- Change in BMD, Tibia Head [4, 9]: 115
- Change in BMD, Tibia TFSP [4, 9]: 124
- AUC ([7]; read-out: Area under curve (AUC)): 32.1 ± 12 ng·h/mL
- Cmax ([7]; read-out: Maximum plasma concentration (Cmax)): 17.5 ± 1.76 ng/mL
- half-life ([7]; read-out: elimination half life (T1/2) (converted)): 2.5 h
- MRT ([7]; read-out: mean residence time (MRT)): 3.5 h
- Tmax ([7]; read-out: time to achieve maximum plasma concentration (tmax) (converted)): 0.25 h
- melting point: 148 to 152 °C
